{"source": "patent US7645459B2", "about": "“Dosage forms of bisphosphonates” (The Procter & Gamble Company, priority 2004, dated 2010)", "origin": "cited, not measured here", "details": "administration within 30 minutes of a meal"}
{"smiles": "O=P(O)(O)C(O)(Cc1cccnc1)P(=O)(O)O", "note": "[risedronate, 1-hydroxy-2-(3-pyridinyl)-ethylidene-1,1-bisphosphonic acid]", "values": [{"measurement": "reduction of the amount absorbed compared to administration in the fasting state", "value": 50, "unit": "%"}]}
